Data on 29 compounds can be found in patent US20250084074A1, “SUBSTITUTED HETEROCYCLES AS HSET INHIBITORS” (MERCK PATENT GMBH, priority 2022, published 2025).

Structures can show the parent of a compound that is named as a salt.

Chain of HSET full length protein (Q9BW19 whole entry): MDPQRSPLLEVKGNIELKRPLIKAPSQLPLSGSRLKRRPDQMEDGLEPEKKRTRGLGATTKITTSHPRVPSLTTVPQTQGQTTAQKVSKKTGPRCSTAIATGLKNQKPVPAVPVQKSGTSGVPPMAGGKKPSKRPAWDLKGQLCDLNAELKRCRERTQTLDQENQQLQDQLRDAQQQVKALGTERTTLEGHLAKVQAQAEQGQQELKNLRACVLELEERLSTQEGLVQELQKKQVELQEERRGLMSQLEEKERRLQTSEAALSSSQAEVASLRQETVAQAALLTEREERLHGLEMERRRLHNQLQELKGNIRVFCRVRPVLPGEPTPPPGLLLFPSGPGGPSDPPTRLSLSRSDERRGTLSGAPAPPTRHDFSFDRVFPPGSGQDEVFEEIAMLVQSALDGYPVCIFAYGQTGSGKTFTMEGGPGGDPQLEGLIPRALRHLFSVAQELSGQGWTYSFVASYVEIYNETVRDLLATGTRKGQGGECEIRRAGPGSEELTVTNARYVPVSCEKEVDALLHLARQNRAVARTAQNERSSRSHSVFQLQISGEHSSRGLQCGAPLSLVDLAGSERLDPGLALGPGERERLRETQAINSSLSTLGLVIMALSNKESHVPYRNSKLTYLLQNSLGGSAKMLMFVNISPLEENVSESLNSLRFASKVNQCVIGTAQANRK

This assay has as its target HSET full length protein (Homo sapiens (Human), UniProt Q9BW19). The assay is described as follows: HSET ADP-Glo Assay S - 3 μM ATP. The assay is classed as biochemical. The conditions noted are these: 5 nM HSET, 70 μg/mL microtubule, 80 min at rt, read-out: COMBINED HSET ADP GLO IC50. In outline:
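Full-length human HSET (5 nM) with paclitaxel-stabilised bovine brain microtubules (70 μg/mL) in HEPES pH 6.8 buffer was preincubated 10 min with compound. ATP at 3 μM started the reaction, which ran 80 min at rt. ADP formed was measured by ADP-Glo luminescence.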
In general terms: ADP-Glo first removes unused ATP, then detects ADP through luciferase.
On to `CCOC(=O)c1sc(NC(=O)CCNC(=O)c2cccc(-c3noc(C)n3)c2)nc1C(C)C` [Example 88, Ethyl 4-isopropyl-2-[3-[[3-(5-methyl-1,2,4-oxadiazol-3-yl)benzoyl]amino]propanoylamino]thiazole-5-carboxylate], for which the IC50 was 477 nM. The figure for `Cc1nc(NC(=O)CCNC(=O)c2cccc(-c3cnn(C)c3)c2)sc1C(=O)OC(C)(C)C` [Example 89, tert-Butyl-4-methyl-2-(3-(3-(1-methyl-1 H-pyrazol-4-yl)benzamido)propanamido)thiazole-5-carboxylate] is 391 nM; for `CCc1nc(NC(=O)CCNC(=O)c2cccc(-c3noc(C)n3)c2)sc1C(=O)OC` [Example 90, Methyl 4-ethyl-2-[3-[[3-(5-methyl-1,2,4-oxadiazol-3-yl)benzoyl]amino]propanoylamino]thiazole-5-carboxylate] it is 556 nM.

For the compound `CCOC(=O)c1sc(NC(=O)CCNC(=O)c2cccc(-c3noc(C)n3)c2)nc1C(F)(F)F` [Example 91, Ethyl 2-[3-[[3-(5-methyl-1,2,4-oxadiazol-3-yl)benzoyl]amino]propanoylamino]-4-(trifluoromethyl)thiazole-5-carboxylate], the IC50 turned out to be 415 nM. As for `CCOC(=O)c1sc(NC(=O)CCNC(=O)c2cccc(-c3noc(C)n3)c2)nc1CC` [Example 92, Ethyl 4-ethyl-2-[3-[[3-(5-methyl-1,2,4-oxadiazol-3-yl)benzoyl]amino]propanoylamino]thiazole-5-carboxylate], the figure is 45 nM.

As to `Cc1nc(-c2cccc(C(=O)NCCC(=O)Nc3nc(C)c(/C=C/C4CCCC4)s3)c2)no1` [Example 93, N-[3-[[5-[(E)-2-cyclopentylvinyl]-4-methyl-thiazol-2-yl]amino]-3-oxo-propyl]-3-(5-methyl-1,2,4-oxadiazol-3-yl)benzamide], the IC50 was 691 nM. As for `COC/C=C/c1sc(NC(=O)CCNC(=O)c2cccc(-c3noc(C)n3)c2)nc1C` [Example 94, N-[3-[[5-[(E)-3-methoxyprop-1-enyl]-4-methyl-thiazol-2-yl]amino]-3-oxo-propyl]-3-(5-methyl-1,2,4-oxadiazol-3-yl)benzamide], the figure is 13400 nM; as for `C=C(c1ccccc1)c1sc(NC(=O)CCNC(=O)c2cccc(-c3noc(C)n3)c2)nc1C` [Example 95, 3-(5-Methyl-1,2,4-oxadiazol-3-yl)-N-[3-[[4-methyl-5-(1-phenylvinyl)thiazol-2-yl]amino]-3-oxo-propyl]benzamide], 823 nM. As for `Cc1nc(-c2ccc3ccnc(N[C@H]4C[C@@H](C(=O)Nc5ncc(C(F)(F)C(F)(F)F)s5)C4)c3c2)no1` [Example 96, 3-[[7-(5-methyl-1,2,4-oxadiazol-3-yl)-1-isoquinolyl]amino]-N-[5-(1,1,2,2,2-pentafluoroethyl)thiazol-2-yl]cyclobutanecarboxamide], the figure is 2190 nM; as for `Cc1nc(-c2ccc3ccnc(N[C@H]4C[C@@H](C(=O)Nc5nc(C)c(C(C)(C)C)s5)C4)c3c2)no1` [Example 98, (1 s,3s)-N-(5-(tert-butyl)-4-methylthiazol-2-yl)-3-((7-(5-methyl-1,2,4-oxadiazol-3-yl)isoquinolin-1-yl)amino)cyclobutane-1-carboxamide], 72 nM; as for `CCCOC(=O)c1sc(NC(=O)[C@H]2C[C@@H](Nc3nccc4ccc(-c5noc(C)n5)cc34)C2)nc1C` [Example 99, Propyl4-methyl-2-((1s,3s)-3-((7-(5-methyl-1,2,4-oxadiazol-3-yl)isoquinolin-1-yl)amino)cyclobutane-1-carboxamido)thiazole-5-carboxylate], 7 nM. The figure for `Cc1nc(-c2ccc3ccnc(N[C@H]4C[C@@H](C(=O)Nc5cc(C(C)(C)C)on5)C4)c3c2)no1` [Example 100, (1 s,3s)-N-(5-(tert-butyl)isoxazol-3-yl)-3-((7-(5-methyl-1,2,4-oxadiazol-3-yl)isoquinolin-1-yl)amino)cyclobutane-1-carboxamide] is 836 nM. `CCCCCc1cc(NC(=O)[C@H]2C[C@@H](Nc3nccc4ccc(-c5noc(C)n5)cc34)C2)nn1C` [Example 101, (1s,3s)-3-((7-(5-methyl-1,2,4-oxadiazol-3-yl)isoquinolin-1-yl)amino)-N-(1-methyl-5-pentyl-1 H-pyrazol-3-yl)cyclobutane-1-carboxamide]: the IC50 was found to be 276 nM. As for `Cc1nc(-c2ccc3ccnc(N[C@H]4C[C@@H](C(=O)Nc5cc(C)c(CC(C)C)s5)C4)c3c2)no1` [Example 102, (1s,3s)-N-(5-isobutyl-4-methylthiophen-2-yl)-3-((7-(5-methyl-1,2,4-oxadiazol-3-yl)isoquinolin-1-yl)amino)cyclobutane-1-carboxamide formate], the figure is 409 nM; as for `Cc1nc(-c2ccc3ccnc(N[C@H]4C[C@@H](C(=O)Nc5nc(C)c(C(F)(F)F)s5)C4)c3c2)no1` [Example 103, (1s,3s)-3-((7-(5-methyl-1,2,4-oxadiazol-3-yl)isoquinolin-1-yl)amino)-N-(4-methyl-5-(trifluoromethyl)thiazol-2-yl)cyclobutane-1-carboxamide], 676 nM.

As to `Cc1nc(-c2cccc(C(=O)N[C@H]3C[C@@H](C(=O)Nc4nc(C)c(C(=O)OC(C)(C)C)s4)C3)c2)no1` [Example 104, tert-Butyl 4-methyl-2-((1s,3s)-3-(3-(5-methyl-1,2,4-oxadiazol-3-yl)benzamido)cyclobutane-1-carboxamido)thiazole-5-carboxylate], the IC50 was 93 nM. As for `Cc1nc(NC(=O)[C@H]2C[C@@H](NC(=O)c3cccc(-c4ncon4)c3)C2)sc1C(=O)OC(C)(C)C` [Example 105, tert-Butyl 2-((1s,3s)-3-(3-(1,2,4-oxadiazol-3-yl)benzamido)cyclobutane-1-carboxamido)-4-methylthiazole-5-carboxylate], the figure is 1590 nM; as for `Cc1nnc(-c2cccc(C(=O)N[C@H]3C[C@@H](C(=O)Nc4nc(C)c(C(=O)OC(C)(C)C)s4)C3)c2)o1` [Example 106, tert-Butyl 4-methyl-2-((1s,3s)-3-(3-(5-methyl-1,3,4-oxadiazol-2-yl)benzamido)cyclobutane-1-carboxamido)thiazole-5-carboxylate], 132 nM. The figure for `Cc1nc(NC(=O)[C@H]2C[C@@H](NC(=O)c3cccc(-c4nnn(C)n4)c3)C2)sc1C(=O)OC(C)(C)C` [Example 107, tert-Butyl-4-methyl-2-((1s,3s)-3-(3-(2-methyl-2H-tetrazol-5-yl)benzamido)cyclobutane-1-carboxamido)thiazole-5-carboxylate] is 41 nM; for `Cc1nc(NC(=O)[C@H]2C[C@@H](Nc3nccc4ccc(Cl)cc34)C2)sc1C(=O)OC(C)(C)C` [Example 108, tert-Butyl 2-((1s,3s)-3-((7-chloroisoquinolin-1-yl)amino)cyclobutane-1-carboxamido)-4-methylthiazole-5-carboxylate] it is 1620 nM. As for `Cc1nc(NC(=O)[C@H]2C[C@@H](Nc3nccc4ccc(C(F)(F)F)cc34)C2)sc1C(=O)OC(C)(C)C` [Example 109, tert-Butyl 4-methyl-2-((1s,3s)-3-((7-(trifluoromethyl)isoquinolin-1-yl)amino)cyclobutane-1-carboxamido)thiazole-5-carboxylate], the figure is 1780 nM; as for `Cc1nc(-c2ccc3ccnc(N[C@H]4C[C@@H](C(=O)Nc5nc(C)c(C(=O)OC(C)(C)C)s5)C4)c3c2)no1` [Example 110, tert-Butyl 4-methyl-2-[[3-[[7-(5-methyl-1,2,4-oxadiazol-3-yl)-1-isoquinolyl]amino]cyclobutanecarbonyl]amino]thiazole-5-carboxylate], 8 nM; as for `Cc1nc(-c2ccc3ccnc(N[C@H]4C[C@@H](C(=O)N(C)c5nc(C)c(C(=O)OC(C)(C)C)s5)C4)c3c2)no1` [Example 111, tert-Butyl 4-methyl-2-[methyl-[3-[[7-(5-methyl-1,2,4-oxadiazol-3-yl)-1-isoquinolyl]amino]cyclobutanecarbonyl]amino]thiazole-5-carboxylate], 68 nM.

On to `Cc1nc(-c2ccc3ccnc(N[C@H]4C[C@@H](C(=O)Nc5nc(Cl)c(C(=O)OC(C)(C)C)s5)C4)c3c2)no1` [Example 112, tert-Butyl 4-chloro-2-[[3-[[7-(5-methyl-1,2,4-oxadiazol-3-yl)-1-isoquinolyl]amino]cyclobutanecarbonyl]amino]thiazole-5-carboxylate], for which the IC50 worked out at 54 nM.

Take `Cc1nc(-c2ccc3ccnc(N[C@H]4C[C@@H](C(=O)Nc5nc(Cl)c(C(=O)NC(C)(C)C)s5)C4)c3c2)no1` [Example 113, N-tert-butyl-4-chloro-2-[[3-[[7-(5-methyl-1,2,4-oxadiazol-3-yl)-1-isoquinolyl]amino]cyclobutanecarbonyl]amino]thiazole-5-carboxamide]: the IC50 was determined as 1380 nM. For `CCOC(=O)c1sc(NC(=O)[C@H]2C[C@@H](Nc3nccc4ccc(-c5noc(C)n5)cc34)C2)nc1C(F)F` [Example 116, Ethyl-4-(difluoromethyl)-2-[[3-[[7-(5-methyl-1,2,4-oxadiazol-3-yl)-1-isoquinolyl]amino]cyclobutanecarbonyl]amino]thiazole-5-carboxylate], the IC50 worked out at 144 nM. The figure for `Cc1ccc2ccnc(N[C@H]3C[C@@H](C(=O)Nc4nc(C)c(C(C)(C)C)s4)C3)c2c1` [Example 117, N-(5-tert-butyl-4-methyl-thiazol-2-yl)-3-[(7-methyl-1-isoquinolyl)amino]cyclobutanecarboxamide] is 9490 nM; for `Cc1noc(-c2sc(NC(=O)CCNC(=O)c3cccc(-c4noc(C)n4)c3)nc2C)n1` [Example 118, 3-(5-methyl-1,2,4-oxadiazol-3-yl)-N-(3-((4-methyl-5-(3-methyl-1,2,4-oxadiazol-5-yl)thiazol-2-yl)amino)-3-oxopropyl)benzamide] it is 8410 nM. As for `CCCOC(=O)c1cc(NC(=O)CCNC(=O)c2cccc(-c3noc(C)n3)c2)nn1C` [Example 120, Propyl-1-methyl-3-(3-(3-(5-methyl-1,2,4-oxadiazol-3-yl)benzamido)propanamido)-1 H-pyrazole-5-carboxylate], the figure is 157 nM.

Usually IC50 stands for the midpoint of a concentration-inhibition curve.
